Experimental data: the supplement of paper PMC10307832

Legend:
Assay in all cases: relative viability (nuclei count vs DMSO), 5 days (fraction); higher = more cells survive
[1] = tested on: NCI-H1975; conditions: first compound 0.5 µM
Procedure, shortened: (§1)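 Lung cancer cell lines were seeded in 1536-well plates and dosed by pin tool the next day, with either a single drug or a fixed anchor-drug dose combined with five library-drug doses (not always all listed) spaced in √10 steps. Five days later, one step fixed the cells and stained their nuclei (final 0.05% Triton X-100, 1% formaldehyde, 1 ug/ml Hoechst), and nuclei were counted on 4× images. Relative viability is the nuclei count in treated wells divided by the count in vehicle wells, and each value is the median of duplicate plates.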

[2] = tested on: NCI-H1755
Procedure, shortened: as §1

[3] = tested on: SW 1573
Procedure, shortened: as §1

[4] = tested on: NCI-H727
Procedure, shortened: as §1

[5] = tested on: HOP-62
Procedure, shortened: as §1

[6] = tested on: NCI-H2009
Procedure, shortened: as §1

[7] = tested on: HCC-366
Procedure, shortened: as §1

[8] = tested on: NCI-H1355
Procedure, shortened: as §1

[9] = tested on: COR-L 105
Procedure, shortened: as §1

[10] = tested on: HARA
Procedure, shortened: as §1

[11] = tested on: A-427
Procedure, shortened: as §1

[12] = tested on: NCI-H1395
Procedure, shortened: as §1

**Q.** For `CC1(C)CCC(c2ccc(Cl)cc2)=C(CN2CCN(c3ccc(C(=O)NS(=O)(=O)c4ccc(N[C@H](CCN5CCOCC5)CSc5ccccc5)c(S(=O)(=O)C(F)(F)F)c4)cc3)CC2)C1` [Navitoclax] + CS(=O)(=O)CCNCc1ccc(-c2ccc3ncnc(Nc4ccc(OCc5cccc(F)c5)c(Cl)c4)c3c2)o1 [Lapatinib] (partner 2 µM), which relative viability [1] is on record?
**A.** 0.893

**Q.** And the relative viability ([2]; first compound 0.005 µM)?
**A.** 1.04

**Q.** And the relative viability ([2]; first compound 0.01581 µM)?
**A.** 1.13

**Q.** What about the relative viability ([2]; first compound 0.05 µM) of the same compound?
**A.** 0.836

**Q.** What about the relative viability ([2]; first compound 0.1581 µM) of the same compound?
**A.** 0.984

**Q.** What about the relative viability ([2]; first compound 0.5 µM) of the same compound?
**A.** 1.02

**Q.** What about the relative viability ([3]; first compound 0.005 µM) of the same compound?
**A.** 1.22

**Q.** And the relative viability ([3]; first compound 0.01581 µM)?
**A.** 1.08

**Q.** And the relative viability ([3]; first compound 0.05 µM)?
**A.** 1.01

**Q.** And the relative viability ([3]; first compound 0.1581 µM)?
**A.** 1.04

**Q.** And the relative viability ([3]; first compound 0.5 µM)?
**A.** 1.09

**Q.** And the relative viability ([4]; first compound 0.005 µM)?
**A.** 0.925

**Q.** What about the relative viability ([4]; first compound 0.01581 µM) of the same compound?
**A.** 1.01

**Q.** And the relative viability ([4]; first compound 0.1581 µM)?
**A.** 0.982

**Q.** And the relative viability ([4]; first compound 0.5 µM)?
**A.** 0.657

**Q.** And the relative viability ([5]; first compound 0.005 µM)?
**A.** 0.924

**Q.** And the relative viability ([5]; first compound 0.01581 µM)?
**A.** 1.12

**Q.** What about the relative viability ([5]; first compound 0.05 µM) of the same compound?
**A.** 0.777

**Q.** What about the relative viability ([5]; first compound 0.1581 µM) of the same compound?
**A.** 0.947

**Q.** And the relative viability ([5]; first compound 0.5 µM)?
**A.** 0.972

**Q.** And the relative viability ([6]; first compound 0.005 µM)?
**A.** 0.938

**Q.** And the relative viability ([6]; first compound 0.01581 µM)?
**A.** 1.14

**Q.** What about the relative viability ([6]; first compound 0.05 µM) of the same compound?
**A.** 0.953

**Q.** And the relative viability ([6]; first compound 0.1581 µM)?
**A.** 0.9

**Q.** What about the relative viability ([6]; first compound 0.5 µM) of the same compound?
**A.** 0.998

**Q.** And the relative viability ([7]; first compound 0.005 µM)?
**A.** 1

**Q.** What about the relative viability ([7]; first compound 0.01581 µM) of the same compound?
**A.** 1.16

**Q.** And the relative viability ([7]; first compound 0.05 µM)?
**A.** 0.348

**Q.** And the relative viability ([7]; first compound 0.1581 µM)?
**A.** 1.04

**Q.** What about the relative viability ([7]; first compound 0.5 µM) of the same compound?
**A.** 1.08

**Q.** And the relative viability ([8]; first compound 0.005 µM)?
**A.** 0.988

**Q.** And the relative viability ([8]; first compound 0.01581 µM)?
**A.** 0.956

**Q.** And the relative viability ([8]; first compound 0.05 µM)?
**A.** 1.03

**Q.** What about the relative viability ([8]; first compound 0.1581 µM) of the same compound?
**A.** 1.05

**Q.** What about the relative viability ([8]; first compound 0.5 µM) of the same compound?
**A.** 1.02

**Q.** What about the relative viability ([9]; first compound 0.005 µM) of the same compound?
**A.** 0.335

**Q.** And the relative viability ([9]; first compound 0.01581 µM)?
**A.** 0.407

**Q.** What about the relative viability ([9]; first compound 0.05 µM) of the same compound?
**A.** 0.307

**Q.** And the relative viability ([9]; first compound 0.1581 µM)?
**A.** 0.282

**Q.** What about the relative viability ([9]; first compound 0.5 µM) of the same compound?
**A.** 0.333

**Q.** What about the relative viability ([10]; first compound 0.005 µM) of the same compound?
**A.** 0.686

**Q.** And the relative viability ([10]; first compound 0.01581 µM)?
**A.** 1

**Q.** And the relative viability ([10]; first compound 0.05 µM)?
**A.** 0.799

**Q.** And the relative viability ([10]; first compound 0.1581 µM)?
**A.** 0.728

**Q.** And the relative viability ([10]; first compound 0.5 µM)?
**A.** 1

**Q.** What about the relative viability ([11]; first compound 0.005 µM) of the same compound?
**A.** 1.05

**Q.** What about the relative viability ([11]; first compound 0.01581 µM) of the same compound?
**A.** 0.956

**Q.** And the relative viability ([11]; first compound 0.05 µM)?
**A.** 0.825

**Q.** What about the relative viability ([11]; first compound 0.1581 µM) of the same compound?
**A.** 1.05

**Q.** What about the relative viability ([11]; first compound 0.5 µM) of the same compound?
**A.** 1.06

**Q.** And the relative viability ([12]; first compound 0.005 µM)?
**A.** 0.831

**Q.** And the relative viability ([12]; first compound 0.01581 µM)?
**A.** 1.18

**Q.** What about the relative viability ([12]; first compound 0.05 µM) of the same compound?
**A.** 1.13

**Q.** What about the relative viability ([12]; first compound 0.1581 µM) of the same compound?
**A.** 1.17

**Q.** What about the relative viability ([12]; first compound 0.5 µM) of the same compound?
**A.** 1.06
